# Results reported in ChEMBL document CHEMBL1909046, “DrugMatrix in vitro pharmacology data”.
# How the values were obtained:
# Adenosine receptor A1 = biological target: T1, Adenosine receptor A1 (Homo sapiens, UniProt P30542); format: cell membranes, CHO, Membrane; conditions: cho;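 also: radioligand binding assay at the adenosine A1 receptor, with DPCPX serving as the labelled ligand; in other assays of this panel Not Active means under 50% inhibition at 10 µM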
# T1 sequence (P30542 whole entry): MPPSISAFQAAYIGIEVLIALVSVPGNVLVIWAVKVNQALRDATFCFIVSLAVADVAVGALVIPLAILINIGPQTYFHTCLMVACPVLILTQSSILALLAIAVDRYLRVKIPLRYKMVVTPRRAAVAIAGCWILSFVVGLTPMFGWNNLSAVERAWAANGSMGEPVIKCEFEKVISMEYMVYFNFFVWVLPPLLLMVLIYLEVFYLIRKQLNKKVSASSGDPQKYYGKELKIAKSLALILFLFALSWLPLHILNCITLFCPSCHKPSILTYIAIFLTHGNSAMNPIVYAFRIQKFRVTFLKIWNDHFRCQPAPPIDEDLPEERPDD
# Substance-K receptor = biological target: T2, Substance-K receptor (Homo sapiens, UniProt P21452); format: cell membranes, CHO, Membrane; also: in other assays of this panel Not Active means under 50% inhibition at 10 µM
# T2 sequence (P21452 whole entry): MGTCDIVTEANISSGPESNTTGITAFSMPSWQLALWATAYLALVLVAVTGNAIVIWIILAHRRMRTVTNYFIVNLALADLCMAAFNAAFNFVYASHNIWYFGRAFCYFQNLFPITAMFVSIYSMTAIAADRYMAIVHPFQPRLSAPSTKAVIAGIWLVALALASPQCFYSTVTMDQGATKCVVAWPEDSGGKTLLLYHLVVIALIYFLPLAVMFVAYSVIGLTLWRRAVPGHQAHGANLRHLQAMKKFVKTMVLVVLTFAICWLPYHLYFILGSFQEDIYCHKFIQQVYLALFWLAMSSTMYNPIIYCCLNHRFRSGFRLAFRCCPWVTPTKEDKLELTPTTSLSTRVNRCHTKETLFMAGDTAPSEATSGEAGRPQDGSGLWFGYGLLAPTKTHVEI
# [1] = biological target: cGMP-specific 3',5'-cyclic phosphodiesterase (Homo sapiens, UniProt O76074); experiment: DRUGMATRIX: Phosphodiesterase PDE5 enzyme inhibition (substrate: [3H]cGMP + cGMP); format: tissue-based; conditions: platelet; Not Active = under 50% inhibition at 10 µM
# [2] = DRUGMATRIX: Phosphodiesterase PDE4 enzyme inhibition (substrate: [3H]cAMP + cAMP); conditions: u-937; Not Active = under 50% inhibition at 10 µM
# [3] = biological target: Beta-3 adrenergic receptor (Homo sapiens, UniProt P13945); experiment: DRUGMATRIX: Adrenergic beta3 radioligand binding (ligand: [125I] Cyanopindolol); format: cell membranes, HEK293, Membrane; conditions: Not Active = under 50% inhibition at 10 µM
# Chain of Beta-3 adrenergic receptor (P13945 whole entry): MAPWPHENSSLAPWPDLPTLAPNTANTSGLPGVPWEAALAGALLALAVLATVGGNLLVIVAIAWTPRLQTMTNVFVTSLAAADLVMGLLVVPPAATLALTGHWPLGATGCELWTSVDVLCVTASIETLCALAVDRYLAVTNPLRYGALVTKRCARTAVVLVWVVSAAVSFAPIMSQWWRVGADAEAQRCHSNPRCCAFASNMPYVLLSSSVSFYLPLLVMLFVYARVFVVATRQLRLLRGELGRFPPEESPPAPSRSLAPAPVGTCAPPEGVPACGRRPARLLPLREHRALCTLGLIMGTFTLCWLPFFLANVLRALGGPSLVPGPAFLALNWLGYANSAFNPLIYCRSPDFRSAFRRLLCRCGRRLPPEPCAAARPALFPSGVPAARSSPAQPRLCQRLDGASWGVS
SMILES,IC50 (Adenosine receptor A1),IC50 (Substance-K receptor; cho),IC50 [1],IC50 [2],Ki [2],IC50 ([3]; hek293),IC50 (Substance-K receptor; read-out: IC50) [µM],Ki (Substance-K receptor; read-out: Ki) [µM],IC50 ([3]; read-out: IC50) [µM],Ki ([3]; read-out: Ki) [µM]
COc1ccccc1OCC(O)COC(N)=O (stereo unspecified) [METHOCARBAMOL],Not Active,Not Active,Not Active,Not Active,Not Active,Not Active,–,–,–,–
CO[C@@]1(NC(=O)CSCC#N)C(=O)N2C(C(=O)O)=C(CSc3nnnn3C)CS[C@@H]21 [CEFMETAZOLE],Not Active,Not Active,Not Active,Not Active,Not Active,Not Active,–,–,–,–
C=C(CC)C(=O)c1ccc(OCC(=O)O)c(Cl)c1Cl [ETHACRYNIC ACID],Not Active,Not Active,Not Active,Not Active,Not Active,Not Active,–,–,–,–
Oc1ccccc1O [CATECHOL],Not Active,Not Active,Not Active,Not Active,Not Active,Not Active,–,–,–,–
CC(C)(CO)C(O)C(=O)NCCCO (stereo unspecified) [PANTHENOL],Not Active,Not Active,Not Active,Not Active,Not Active,Not Active,–,–,–,–
NC(=O)N1c2ccccc2C=Cc2ccccc21 [CARBAMAZEPINE],Not Active,Not Active,Not Active,Not Active,Not Active,Not Active,–,–,–,–
CN(Cc1cnc2nc(N)nc(N)c2n1)c1ccc(C(=O)N[C@@H](CCC(=O)O)C(=O)O)cc1 [METHOTREXATE],Not Active,Not Active,Not Active,Not Active,Not Active,Not Active,–,–,–,–
O=P1(N(CCCl)CCCl)NCCCO1 (stereo unspecified) [CYCLOPHOSPHAMIDE ANHYDROUS],Not Active,Not Active,Not Active,Not Active,Not Active,Not Active,–,–,–,–
C[C@]12CCC(=O)C=C1CC[C@@H]1[C@@H]2[C@@H](O)C[C@@]2(C)[C@H]1CC[C@]2(O)C(=O)CO [HYDROCORTISONE],Not Active,Not Active,Not Active,Not Active,Not Active,Not Active,–,–,–,–
Cc1cccc(Nc2ccccc2C(=O)O)c1C [MEFENAMIC ACID],Not Active,Not Active,Not Active,Not Active,Not Active,Not Active,–,–,–,–
CCn1cc(C(=O)O)c(=O)c2cc(F)c(N3CCNCC3)nc21 [ENOXACIN],Not Active,Not Active,Not Active,Not Active,Not Active,Not Active,–,–,–,–
Cc1c(N(C)CS(=O)(=O)[O-])c(=O)n(-c2ccccc2)n1C.[Na+] [DIPYRONE SODIUM],Not Active,Not Active,Not Active,Not Active,Not Active,Not Active,–,–,–,–
C#C[C@]1(O)CC[C@H]2[C@@H]3CCC4=Cc5oncc5C[C@]4(C)[C@H]3CC[C@@]21C [DANAZOL],Not Active,–,Not Active,Not Active,Not Active,–,26.6,8.86,17,12.8
CC(=O)O[C@]1(C(C)=O)CC[C@H]2[C@@H]3C=C(C)C4=CC(=O)CC[C@]4(C)[C@H]3CC[C@@]21C [MEGESTROL ACETATE],Not Active,Not Active,Not Active,Not Active,Not Active,Not Active,–,–,–,–
CCOC(=O)n1ccn(C)c1=S [CARBIMAZOLE],Not Active,Not Active,Not Active,Not Active,Not Active,Not Active,–,–,–,–
CN1C(=O)CN=C(c2ccccc2)c2cc(Cl)ccc21 [DIAZEPAM],Not Active,Not Active,Not Active,Not Active,Not Active,Not Active,–,–,–,–
NC[C@H]1O[C@H](O[C@H]2[C@H](O)[C@@H](O[C@H]3O[C@H](CO)[C@@H](O)[C@H](N)[C@H]3O)[C@H](N)C[C@@H]2N)[C@H](O)[C@@H](O)[C@@H]1O [KANAMYCIN],Not Active,Not Active,Not Active,Not Active,Not Active,Not Active,–,–,–,–

SMILES,IC50 (Adenosine receptor A1),IC50 (Substance-K receptor; cho),IC50 [1],IC50 [2],Ki [2],IC50 ([3]; hek293),IC50 (Substance-K receptor; read-out: IC50) [µM],Ki (Substance-K receptor; read-out: Ki) [µM],IC50 ([3]; read-out: IC50) [µM],Ki ([3]; read-out: Ki) [µM]
COc1cc(CNC(=O)CCCC/C=C/C(C)C)ccc1O [CAPSAICIN],Not Active,Not Active,Not Active,Not Active,Not Active,Not Active,–,–,–,–
C[C@H](C(=O)O)c1cccc(C(=O)c2ccccc2)c1 [DEXKETOPROFEN],Not Active,Not Active,Not Active,Not Active,Not Active,Not Active,–,–,–,–
NC[C@@H]1O[C@H](O[C@H]2[C@@H](O)[C@H](O[C@@H]3[C@@H](O)[C@H](N)C[C@H](N)[C@H]3O[C@H]3O[C@H](CN)[C@@H](O)[C@H](O)[C@H]3N)O[C@@H]2CO)[C@H](N)[C@@H](O)[C@@H]1O [FRAMYCETIN],Not Active,Not Active,Not Active,Not Active,Not Active,Not Active,–,–,–,–
C[C@]12C/C(=C/O)C(=O)C[C@@H]1CC[C@@H]1[C@@H]2CC[C@@]2(C)[C@H]1CC[C@]2(C)O [OXYMETHOLONE],Not Active,Not Active,Not Active,Not Active,Not Active,Not Active,–,–,–,–
C[C@@H]1CC[C@H]2[C@@H](C)C(=O)O[C@@H]3O[C@@]4(C)CC[C@@H]1[C@]32OO4 [ARTEMISININ],Not Active,Not Active,Not Active,Not Active,Not Active,Not Active,–,–,–,–
CCOC(=O)[C@H](CCc1ccccc1)N[C@@H](C)C(=O)N1Cc2ccccc2C[C@H]1C(=O)O,Not Active,Not Active,Not Active,Not Active,Not Active,Not Active,–,–,–,–
C=C1/C(=C\C=C2/CCC[C@]3(C)[C@@H]([C@H](C)CCCC(C)C)CC[C@@H]23)C[C@@H](O)C[C@@H]1O [ALFACALCIDOL],Not Active,Not Active,Not Active,Not Active,Not Active,Not Active,–,–,–,–
CCCCC1C(=O)N(c2ccccc2)N(c2ccccc2)C1=O [PHENYLBUTAZONE],Not Active,Not Active,Not Active,Not Active,Not Active,Not Active,–,–,–,–
Cc1cn[nH]c1 [FOMEPIZOLE],Not Active,Not Active,Not Active,Not Active,Not Active,Not Active,–,–,–,–
COc1ccccc1OCC(O)CO (stereo unspecified) [GUAIFENESIN],Not Active,Not Active,Not Active,Not Active,Not Active,Not Active,–,–,–,–
[N-]=[N+]=CC(=O)OC[C@H](N)C(=O)O [AZASERINE],Not Active,Not Active,Not Active,Not Active,Not Active,Not Active,–,–,–,–
N[C@@H](Cc1ccc(F)cc1)C(=O)O,Not Active,Not Active,Not Active,Not Active,Not Active,Not Active,–,–,–,–
O=C(/C=C/c1ccc(O)c(O)c1)OCCc1ccccc1 [CAFFEIC ACID PHENETHYL ESTER],Not Active,Not Active,Not Active,Not Active,Not Active,Not Active,–,–,–,–
CCOC(=O)C1=C(C)NC(C)=C(C(=O)OC)C1c1cccc(Cl)c1Cl (stereo unspecified) [FELODIPINE],Not Active,Not Active,Not Active,Not Active,Not Active,Not Active,–,–,–,–
OCCO [ETHYLENE GLYCOL],Not Active,Not Active,Not Active,Not Active,Not Active,Not Active,–,–,–,–
CCC[C@@H]1C[C@@H](C(=O)N[C@@H]([C@H]2O[C@H](SC)[C@H](O)[C@@H](O)[C@H]2O)[C@H](C)Cl)N(C)C1 [CLINDAMYCIN],Not Active,Not Active,Not Active,Not Active,Not Active,Not Active,–,–,–,–
C[C@H]([C@](O)(Cn1cncn1)c1ccc(F)cc1F)S(C)(=O)=O [GENACONAZOLE],Not Active,Not Active,Not Active,Not Active,Not Active,Not Active,–,–,–,–
